Earlier results on 4 compounds are cited in PMC5762859, “Distribution analysis of epertinib in brain metastasis of HER2-positive breast cancer by imaging mass spectrometry and prospect for antitumor activity” (Scientific Reports, 2018).

The conditions of data set [1]: healthy volunteers, single oral 250 mg [14C]-lapatinib; cited from earlier work.
Data set [2] addresses T1, P-glycoprotein (P-gp) (Homo sapiens, UniProt P08183).
T1 construct: permeability and efflux ratio of epertinib across Caco-2 cell monolayers; endogenous in cells; host or cells: Caco-2
The following applies: cited from earlier work.

Data set [3] concerns the target T2, breast cancer resistance protein (BCRP) (Homo sapiens, UniProt Q9UNQ0).
T2 construct: permeability and efflux ratio of epertinib across Caco-2 cell monolayers; endogenous in cells; host or cells: Caco-2
T2 sequence (Q9UNQ0 1-655): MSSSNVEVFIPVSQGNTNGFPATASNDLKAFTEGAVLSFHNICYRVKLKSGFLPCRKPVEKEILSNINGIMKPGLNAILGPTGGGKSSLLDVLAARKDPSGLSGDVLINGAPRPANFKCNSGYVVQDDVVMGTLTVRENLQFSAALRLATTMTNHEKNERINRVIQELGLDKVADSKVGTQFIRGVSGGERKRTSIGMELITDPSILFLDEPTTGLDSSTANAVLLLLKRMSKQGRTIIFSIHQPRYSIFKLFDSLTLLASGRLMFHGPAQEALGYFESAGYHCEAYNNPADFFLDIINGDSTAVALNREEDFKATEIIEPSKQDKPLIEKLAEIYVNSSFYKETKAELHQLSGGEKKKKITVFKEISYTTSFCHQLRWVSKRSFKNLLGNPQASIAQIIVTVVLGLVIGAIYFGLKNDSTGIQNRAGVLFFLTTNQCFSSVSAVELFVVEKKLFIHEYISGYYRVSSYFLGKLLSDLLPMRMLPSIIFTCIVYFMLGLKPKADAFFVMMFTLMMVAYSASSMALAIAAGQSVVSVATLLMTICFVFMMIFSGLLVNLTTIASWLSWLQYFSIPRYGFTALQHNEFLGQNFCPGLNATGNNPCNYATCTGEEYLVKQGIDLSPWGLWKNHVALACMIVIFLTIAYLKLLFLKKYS
The following applies: cited from earlier work.

Data set [4] deals with HER2-positive metastatic breast cancer patients. The following applies: historical data, combination with trastzumab; cited from earlier work.

T1 sequence (P08183 whole entry): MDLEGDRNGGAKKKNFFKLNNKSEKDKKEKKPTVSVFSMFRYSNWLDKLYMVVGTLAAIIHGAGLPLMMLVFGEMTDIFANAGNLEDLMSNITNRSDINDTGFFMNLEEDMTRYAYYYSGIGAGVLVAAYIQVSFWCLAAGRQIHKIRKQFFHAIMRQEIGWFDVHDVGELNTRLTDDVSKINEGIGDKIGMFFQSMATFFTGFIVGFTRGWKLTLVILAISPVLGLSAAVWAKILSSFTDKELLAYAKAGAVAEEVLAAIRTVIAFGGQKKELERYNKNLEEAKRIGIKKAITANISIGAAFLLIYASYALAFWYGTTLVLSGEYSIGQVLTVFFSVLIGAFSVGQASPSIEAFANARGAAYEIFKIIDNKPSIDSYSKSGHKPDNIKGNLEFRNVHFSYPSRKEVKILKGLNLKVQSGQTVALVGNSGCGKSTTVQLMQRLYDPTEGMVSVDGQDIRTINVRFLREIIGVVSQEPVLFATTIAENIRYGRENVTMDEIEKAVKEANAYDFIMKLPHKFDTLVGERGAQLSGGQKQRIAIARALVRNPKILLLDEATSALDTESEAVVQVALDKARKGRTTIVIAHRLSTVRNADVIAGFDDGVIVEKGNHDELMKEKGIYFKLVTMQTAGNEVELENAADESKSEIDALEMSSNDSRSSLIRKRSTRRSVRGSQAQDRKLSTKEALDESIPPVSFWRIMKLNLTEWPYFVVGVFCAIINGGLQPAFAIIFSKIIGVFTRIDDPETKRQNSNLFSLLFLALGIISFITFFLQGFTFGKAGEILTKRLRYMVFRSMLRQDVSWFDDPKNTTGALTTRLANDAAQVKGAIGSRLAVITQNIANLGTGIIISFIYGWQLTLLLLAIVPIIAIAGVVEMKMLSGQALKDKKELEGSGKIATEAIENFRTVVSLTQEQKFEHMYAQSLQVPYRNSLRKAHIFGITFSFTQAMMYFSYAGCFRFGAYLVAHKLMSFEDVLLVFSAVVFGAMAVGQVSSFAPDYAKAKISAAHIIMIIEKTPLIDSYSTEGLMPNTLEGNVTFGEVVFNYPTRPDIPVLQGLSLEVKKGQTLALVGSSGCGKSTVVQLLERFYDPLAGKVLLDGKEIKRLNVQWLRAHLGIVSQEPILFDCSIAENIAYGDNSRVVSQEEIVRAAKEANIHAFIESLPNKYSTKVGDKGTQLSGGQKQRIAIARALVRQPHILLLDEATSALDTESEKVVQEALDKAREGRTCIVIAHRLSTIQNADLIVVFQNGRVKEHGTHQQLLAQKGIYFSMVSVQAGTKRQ

As to `CS(=O)(=O)CCNCc1ccc(-c2ccc3ncn[14c](Nc4ccc(OCc5cccc(F)c5)c(Cl)c4)c3c2)o1.Cc1ccc(S(=O)(=O)O)cc1.O` [[^14C]-lapatinib], the “Mean plasma concentration of total radioactivity at Cmax” value in data set [1] is reported as 720 ng eq./mL.

On to `Cc1cc(Nc2ncnc3ccc(NC4=NC(C)(C)CO4)cc23)ccc1Oc1ccn2ncnc2c1` [tucatinib], for which the P-gp substrate entry in data set [2] is listed as “substrates”. Besides, the BCRP substrate entry in data set [3] is on record as “substrates”. Further, in data set [4], the “Objective response rate (ORR)” value is recorded as 26%.

For the compound `CCOc1cc2ncc(C#N)c(Nc3ccc(OCc4ccccn4)c(Cl)c3)c2cc1NC(=O)/C=C/CN(C)C` [neratinib], the P-gp substrate result in data set [2] is “substrates”. In data set [3], the BCRP substrate entry was “substrates”.

As for `CN(C)C/C=C/C(=O)Nc1cc2c(Nc3ccc(F)c(Cl)c3)ncnc2cc1O[C@H]1CCOC1` [afatinib], the P-gp substrate result in data set [2] was “substrates”. Besides, in data set [3], the BCRP substrate entry is given as “substrates”.
